Experimental data as given in patent US11773067B2, “(Trifluoromethyl)pyrimidine-2-amine compounds” (Eli Lilly and Company, priority 2020, dated 2023).
Where two headings read alike, the source gives them in different places.

Legend:
human MrgX1 receptor = target: T1, human MrgX1 receptor (Homo sapiens, UniProt Q96LB2); experiment: IP1 Cellular Assay for EC50 Determination Against hMrgX1 by HTRF; format: cell-based; conditions: in presence of EC15 of BAM8-22; for EC50: HEK293 cells stably expressing hMrgX1, geometric mean (SEM, n), read-out: Relative EC50 (SEM, n)
T1 construct: expressed in transfected cells
Protocol: IP1 Cellular Assay for EC50 Determination Against hMrgX1 by HTRF
Cell plating: HEK293 cells stably expressing the recombinant human MrgX1 receptor are expanded in culture flasks (Corning, T150), using growth media containing DMEM with glutamine (GIBCO™, Cat. #11960-044) supplemented with 10% heat-inactivated FBS (HyClone™, Cat. #CH30073), 1% penicillin/streptomycin (HyClone™, Cat. #SV30010; 10,000 U/mL penicillin; 10,000 μg/mL streptomycin in 0.85% NaCl), 20 mM HEPES (GIBCO™, Cat. #15530122) and 0.3 mg/mL G418 (GIBCO™, Cat. #11811031). When cell monolayers achieve a level of 80-90% confluence, monolayers are washed once with 10 mL of DPBS (HyClone™, Cat. #14190-144), dissociated using TrypLE™ Express enzyme cell dissociation media (GIBCO™, Cat. #12605-010), and diluted by addition of 10 mL DPBS. Dissociated cells are transferred to a sterile 50 mL conical tube, pelleted by centrifugation at 300×g to remove the growth and dissociation media, and diluted to 1M cells/mL into DMEM for plating.
IP1 Potency and Efficacy Determination: Test compounds are dissolved in DMSO to a concentration of 10 mM and serially diluted in DMSO to obtain a 10-point concentration response stock dilution plate. Growth media is removed from the cell plate, and the stock 10-point dilution plate is diluted into media and stamped into the cell plate at a concentration 2× higher than the final test concentration of 30 μM maximum. The endogenous agonist […] (Tocris-BioScience® Cat. #1763) is diluted to the EC15, determined independently at a minimum of n=3, into the cell plate and incubated at room temperature for 120 min. Subsequently, half the volume each of anti-IP1 cryptate and d2-labeled IP1 in lysis buffer, supplied with the IP-One Gq Kit (CisBio Cat. #62IPAPEC) are added to the cell plate to initiate cell lysis, and incubated for 60 min at room temperature in the dark. At that point, fluorescence is determined at 620 and 665 nm (˜100 μs following laser excitation).
Data Analysis: Fluorescent ratios are determined as the ratio of the fluorescence emission at […] and converted to IP1 concentration, using the IP1 standard curve generated in a separate plate, following the manufacturer's instructions. The IP1 concentration is then plotted as a function of compound concentration. Potentiator potency (EC50) is defined as the compound concentration, in the presence of the EC15 of the endogenous agonist […], resulting in 50% of the increase in IP1 concentration achieved by a saturating concentration of […], and is determined by using Genedata software (GeneData AG, Basel Switzerland) fitting the following equation to the 10-point CRC, where y is the IP1 concentration determined for a given compound concentration, [L] denotes the concentration of test compound and Max is the maximum increase achieved by a saturating concentration of […]: Y=Max*[L]/(EC50+[L]) EC50 values are reported as the geometric mean in nM (SEM, n).

[1] = In Vivo Determination of Kp,uu,brain in Mice; design: species or system mouse; conditions: for Kp uu at 2 h / concentration at 2 h: male, mouse; for Kp uu at 2 h: C57Bl/6, brain/plasma; for concentration at 2 h: C57Bl/6, mouse, po
Excerpt: In Vivo Determination of Kp,uu,brain in Mice
Unbound brain-to-plasma partition coefficient (Kp,uu,brain) is one of the key pharmacokinetic parameter for evaluating a compound's ability to cross the blood-brain barrier (BBB). It is typically measured in pre-clinical species using the following methodology. Kp,uu,brain values indicate the fraction of free drug in plasma that partitions across the BBB.
Subjects: The subjects for these studies are 12 male C57Bl/6 mice (Envigo, Indianapolis, IN, USA) between 8-10 weeks old at time of test. Mice are housed in groups of 4 in high density plastic home cages. Food and water is available ad libitum. The rooms are maintained at 73° F. with 30-70% relative humidity and kept on a light/dark cycle of 0600-1800 h. Agent: The compound of Example 2 is prepared at 0.3, 1, and 3 mg/ml in the 1% HEC, 0.25% TWEEN®80, 0.05% DOWSIL™ vehicle in water. Prepared compound is sonicated in water bath for 30 min until a suspension is formed. Mice are dosed at 10 ml/kg for a respective 3, 10 or 30 mg/kg dose. Dosing and Tissue Collection: For this experiment, four mice per dosing group receive oral dosing of either: 3, 10, or 30 mg/kg of the compound of Example 2. Mice are euthanized at 2 h post-dosing via CO2 asphyxiation, plasma samples are collected via cardia puncture, and mouse brains removed, weighed, and frozen on dry ice. Blood samples are stored in EDTA tubes on wet ice and centrifuged at 15 k rpm for 10 min. Plasma is collected, plated in a 96-well plate, and frozen at −80° C.
Pharmacokinetic sampling: Plasma and brain samples obtained are analyzed for Example 2 using an LC-MS/MS method (Q2 Solutions, Indianapolis, IN, USA). Plasma samples are extracted using protein precipitation. The lower limit of quantification is 25 ng/mL, and the upper limit of quantification is 5000 ng/mL. Brain samples are homogenized, and the analyte is extracted using protein precipitation. The lower limit of quantification is 4 ng/g and the upper limit of quantification is 200000 ng/g.
Analysis and Results: Kp,uu,brain is calculated for each time point from the expression below where individual components are derived from a combination of in vitro and in vivo measurements carried out as described above:
[formula] where Ctotal,brain, Cu,brain, Ctotal,plasma, and Cu,plasma are total and unbound brain and plasma concentrations, and fu,brain and fu,plasma are fractions unbound in brain and plasma, respectively.

[2] = Plasma and brain homogenate protein binding by equilibrium dialysis; format: in vitro ADME, mouse
Protocol: Determination of plasma and brain protein binding: Mouse plasma and brain homogenate protein binding is determined in vitro using equilibrium dialysis, as described elsewhere [Zamek-Gliszczynski et al., J Pharm Sci, 101:1932-1940, 2012]. The results are reported as fraction unbound in plasma (fu,plasma) and brain (fu,brain) which are then utilized to calculate Kp,uu,brain as described below. Mouse fu,plasma and fu,brain of Example 2 are determined to be 0.0421 and 0.0181, respectively.

T1 sequence (Q96LB2 whole entry): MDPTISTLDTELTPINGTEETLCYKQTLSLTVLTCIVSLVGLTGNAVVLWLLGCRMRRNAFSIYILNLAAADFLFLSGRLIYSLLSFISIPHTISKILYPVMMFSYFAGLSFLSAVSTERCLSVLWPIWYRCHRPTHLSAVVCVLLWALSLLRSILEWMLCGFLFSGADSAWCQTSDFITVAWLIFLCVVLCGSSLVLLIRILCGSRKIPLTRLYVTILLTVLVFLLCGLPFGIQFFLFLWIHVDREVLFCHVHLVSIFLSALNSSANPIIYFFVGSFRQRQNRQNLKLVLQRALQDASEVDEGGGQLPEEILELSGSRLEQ

With `Nc1nc(Oc2c(F)cccc2F)cc(C(F)(F)F)n1` [Example 1, 4-(2,6-Difluorophenoxy)-6-(trifluoromethyl)pyrimidin-2-amine] the EC50 (human MrgX1 receptor) was 72 nM.
With `Nc1nc(Oc2c(F)cc(F)cc2F)cc(C(F)(F)F)n1` [Example 2, 4-(2,4,6-Trifluorophenoxy)-6-(trifluoromethyl)pyrimidin-2-amine] the EC50 (human MrgX1 receptor) was 61 nM, the “blood brain barrier crossing / central penetrance” value ([1]; 2 h post-oral administration in mice) was “crosses the blood brain barrier and has central penetrance” and the Kp uu at 2 h ([1]; 3 mg/kg oral) was 0.506 ± 0.107. It also gave a Kp uu at 2 h ([1]; 10 mg/kg oral) of 0.586 ± 0.116, a Kp uu at 2 h ([1]; 30 mg/kg oral) of 0.601 ± 0.0553 and a concentration at 2 h ([1]; brain, 3 mg/kg, 3 mg/kg oral, read-out: Total brain conc. (Ctotal,brain) ± SD) of 972 ± 353 nM. The concentration at 2 h ([1]; brain, 3 mg/kg, 3 mg/kg oral, using fu,brain 0.0181, read-out: Unbound brain conc. (Cu,brain) ± SD) was 17.6 ± 6.39 nM, the concentration at 2 h ([1]; brain, 10 mg/kg, 10 mg/kg oral, read-out: Total brain conc. (Ctotal,brain) ± SD) was 3900 ± 1800 nM and the concentration at 2 h ([1]; brain, 10 mg/kg, 10 mg/kg oral, using fu,brain 0.0181, read-out: Unbound brain conc. (Cu,brain) ± SD) was 55.4 ± 32.5 nM. The concentration at 2 h ([1]; brain, 30 mg/kg, 30 mg/kg oral, read-out: Total brain conc. (Ctotal,brain) ± SD) was 13700 ± 4200 nM, the concentration at 2 h ([1]; brain, 30 mg/kg, 30 mg/kg oral, using fu,brain 0.0181, read-out: Unbound brain conc. (Cu,brain) ± SD) was 248 ± 75.9 nM and the concentration at 2 h ([1]; plasma, 3 mg/kg, 3 mg/kg oral, read-out: Total plasma conc. (Ctotal,plasma) ± SD) was 809 ± 140 nM. For the same compound, the concentration at 2 h ([1]; plasma, 3 mg/kg, 3 mg/kg oral, using fu,plasma 0.0421, read-out: Unbound plasma conc. (Cu,plasma) ± SD) was 34.1 ± 5.94 nM, the concentration at 2 h ([1]; plasma, 10 mg/kg, 10 mg/kg oral, read-out: Total plasma conc. (Ctotal,plasma) ± SD) was 2770 ± 651 nM and the concentration at 2 h ([1]; plasma, 10 mg/kg, 10 mg/kg oral, using fu,plasma 0.0421, read-out: Unbound plasma conc. (Cu,plasma) ± SD) was 117 ± 27.4 nM. For the same compound, the concentration at 2 h ([1]; plasma, 30 mg/kg, 30 mg/kg oral, read-out: Total plasma conc. (Ctotal,plasma) ± SD) was 9700 ± 2410 nM, the concentration at 2 h ([1]; plasma, 30 mg/kg, 30 mg/kg oral, using fu,plasma 0.0421, read-out: Unbound plasma conc. (Cu,plasma) ± SD) was 409 ± 101 nM and the fraction unbound ([2]; mouse brain homogenate, read-out: fraction unbound in brain (fu,brain)) was 0.0181. For the same compound, the fraction unbound ([2]; mouse plasma, read-out: fraction unbound in plasma (fu,plasma)) was 0.0421.
`N#Cc1cc(F)c(Oc2cc(C(F)(F)F)nc(N)n2)c(F)c1` [Example 3, 4-[2-Amino-6-(trifluoromethyl)pyrimidin-4-yl]oxy-3,5-difluoro-benzonitrile] showed an EC50 (human MrgX1 receptor) of 104 nM.
Work on `Cc1c(Oc2c(F)cc(F)cc2F)nc(N)nc1C(F)(F)F` [Example 4, 5-Methyl-4-(trifluoromethyl)-6-(2,4,6-trifluorophenoxy)pyrimidin-2-amine] yielded an EC50 (human MrgX1 receptor) of 40 nM.
For `Cc1c(Oc2c(F)cc(C#N)cc2F)nc(N)nc1C(F)(F)F` [Example 5, 4-[2-Amino-5-methyl-6-(trifluoromethyl)pyrimidin-4-yl]oxy-3,5-difluoro-benzonitrile], the EC50 (human MrgX1 receptor) was 82 nM and the “Max (Mean ± SEM)” value (human MrgX1 receptor; maximum stimulation achieved in the assay) was 120 nM.
For `Cc1c(Oc2c(F)cccc2F)nc(N)nc1C(F)(F)F` [Example 6, 4-(2,6-difluorophenoxy)-5-methyl-6-(trifluoromethyl)pyrimidin-2-amine], the EC50 (human MrgX1 receptor) was 38 nM.
